Laboratory results published in ChEMBL document CHEMBL5042526, “Design, Synthesis, and Biological Evaluation of Triazolone Derivatives as Potent PPARα/δ Dual Agonists for the Treatment of Nonalcoholic Steatohepatitis” (J Med Chem, 2022).
Active and inactive are the calls of the source. The calls are words filed in the database; no cut-off is given here.

How the values were obtained:
[1] = system: Mus musculus; test: In vivo agonist activity against PPARalpha/delta assessed as upregulation of Hadn-mRNA expression in C57BL/6Nifdc mouse liver at 10 mg/kg, po for 4 days; assay type: functional, organism-based; conditions: time 4.0 day
[2] = system: Mus musculus; test: In vivo agonist activity against PPARalpha/delta assessed as upregulation of Me1 mRNA expression in C57BL/6Nifdc mouse liver at 10 mg/kg, po for 4 days; assay type: functional, organism-based; conditions: time 4.0 day
[3] = system: Mus musculus; test: In vivo agonist activity at PPARalpha/delta assessed as upregulation of Lpin2 mRNA expression in C57BL/6Nifdc mouse liver at 10 mg/kg, po for 4 days; assay type: functional, organism-based; conditions: time 4.0 day
[4] = system: Mus musculus; test: Anti-inflammatory activity in HF-CDAA-induced nonalcoholic steatohepatitis C57BL/6JNifdc mouse model assessed as decrease in Il1b mRNA expression at 10 mg/kg, po; assay type: functional, organism-based
[5] = system: Mus musculus; test: Anti-fibrosis effect in HF-CDAA-induced nonalcoholic steatohepatitis C57BL/6JNifdc mouse model assessed as expression of Col1a1 marker at 10 mg/kg, po after 20 hrs by Western blot analysis; assay type: functional, organism-based
[6] = system: Mus musculus; test: Anti-fibrosis effect in HF-CDAA-induced nonalcoholic steatohepatitis C57BL/6JNifdc mouse model assessed as expression of Acta2 marker at 10 mg/kg, po after 20 hrs by Western blot analysis; assay type: functional, organism-based
[7] = system: Mus musculus; test: In vivo agonist activity against PPARalpha/delta assessed as upregulation of Pdk4 mRNA expression in C57BL/6Nifdc mouse skeletal muscle at 10 mg/kg, po for 4 days; assay type: functional, organism-based; conditions: time 4.0 day
[8] = system: Mus musculus; test: In vivo agonist activity at PPARalpha/delta assessed as upregulation of Retsat-mRNA expression in C57BL/6Nifdc mouse liver at 10 mg/kg, po for 4 days; assay type: functional, organism-based; conditions: time 4.0 day
[9] = target: T1, Peroxisome proliferator-activated receptor gamma (Mus musculus, UniProt P37238); test: Agonist activity at mouse PPARgamma in Cos7 cells transfected with pBIND and pGL4.35 Gal4 UAS Luc reporter plasmid by measuring luciferase activity incubated for 16 hrs by luciferase reporter gene assay
T1 sequence (P37238 whole entry): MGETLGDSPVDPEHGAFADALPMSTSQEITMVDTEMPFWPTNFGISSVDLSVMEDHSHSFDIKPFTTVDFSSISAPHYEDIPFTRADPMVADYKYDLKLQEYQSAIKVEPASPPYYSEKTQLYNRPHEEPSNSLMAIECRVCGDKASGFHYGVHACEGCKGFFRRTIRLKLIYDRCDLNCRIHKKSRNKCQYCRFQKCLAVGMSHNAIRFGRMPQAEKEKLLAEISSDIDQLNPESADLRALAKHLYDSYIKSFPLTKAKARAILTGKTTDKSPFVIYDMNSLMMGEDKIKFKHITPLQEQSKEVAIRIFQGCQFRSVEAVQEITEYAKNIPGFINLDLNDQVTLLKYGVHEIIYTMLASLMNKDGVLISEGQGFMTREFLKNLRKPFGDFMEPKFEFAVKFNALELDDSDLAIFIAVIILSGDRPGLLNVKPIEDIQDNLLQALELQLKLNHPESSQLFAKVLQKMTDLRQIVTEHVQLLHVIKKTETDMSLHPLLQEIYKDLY

[10] = system: Mus musculus; test: In vivo agonist activity against PPARalpha/delta assessed as upregulation of Slc25a20 mRNA expression in C57BL/6Nifdc mouse skeletal muscle at 10 mg/kg, po for 4 days; assay type: functional, organism-based; conditions: time 4.0 day
[11] = system: Mus musculus; test: In vivo agonist activity against PPARalpha/delta assessed as upregulation of Ugt1a9 mRNA expression in C57BL/6Nifdc mouse liver at 10 mg/kg, po for 4 days; assay type: functional, organism-based; conditions: time 4.0 day
[12] = system: Mus musculus; test: In vivo agonist activity against PPARalpha/delta assessed as upregulation of Plin5 mRNA expression in C57BL/6Nifdc mouse skeletal muscle at 10 mg/kg, po for 4 days; assay type: functional, organism-based; conditions: time 4.0 day
[13] = system: Mus musculus; test: In vivo agonist activity against PPARalpha/delta assessed as upregulation of Cpt2 mRNA expression in C57BL/6Nifdc mouse skeletal muscle at 10 mg/kg, po for 4 days; assay type: functional, organism-based; conditions: time 4.0 day
[14] = system: Mus musculus; test: In vivo agonist activity at PPARalpha/delta assessed as upregulation of Csnk1g2 mRNA expression in C57BL/6Nifdc mouse liver at 10 mg/kg, po for 4 days; assay type: functional, organism-based; conditions: time 4.0 day
[15] = system: Mus musculus; test: In vivo agonist activity against PPARalpha/delta assessed as upregulation of -Mlycd mRNA expression in C57BL/6Nifdc mouse skeletal muscle at 10 mg/kg, po for 4 days; assay type: functional, organism-based; conditions: time 4.0 day
[16] = system: Mus musculus; test: Anti-fibrosis effect in CCl4 induced liver fibrosis C57BL/6JNifdc mouse model by measuring serum triglyceride level at 3 to 30 mg/kg, po; assay type: functional, organism-based; conditions: dose 3-30 mg/kg
[17] = system: Mus musculus; test: In vivo agonist activity at PPARalpha/delta assessed as upregulation of Cpt2 mRNA expression in C57BL/6Nifdc mouse liver at 10 mg/kg, po for 4 days; assay type: functional, organism-based; conditions: time 4.0 day
[18] = system: Mus musculus; test: In vivo agonist activity at PPARalpha/delta assessed as upregulation of -Grhpr mRNA expression in C57BL/6Nifdc mouse liver at 10 mg/kg, po for 4 days; assay type: functional, organism-based; conditions: time 4.0 day
[19] = system: Mus musculus; test: Anti-NASH activity in HF-CDAA-induced nonalcoholic steatohepatitis C57BL/6JNifdc mouse model assessed as lipid drop size at 3 to 30 mg/kg, po by H and E staining method; assay type: functional, organism-based; conditions: dose 3-30 mg/kg
[20] = system: Mus musculus; test: In vivo agonist activity against PPARalpha/delta assessed as upregulation of Pdk4 mRNA expression in C57BL/6Nifdc mouse liver at 10 mg/kg, po for 4 days; assay type: functional, organism-based; conditions: time 4.0 day
[21] = system: HepG2; test: Agonist activity against PPARalpha/delta (unknown origin) assessed as upregulation of CPT1A mRNA expression in human HepG2 cells incubated for 12 hrs by RT-PCR analysis; assay type: cell-based; conditions: filed as agonist, dose 8-200 nM
[22] = system: Mus musculus; test: Anti-inflammatory activity in HF-CDAA-induced nonalcoholic steatohepatitis C57BL/6JNifdc mouse model assessed as decrease in Tnf mRNA expression at 10 mg/kg, po; assay type: functional, organism-based
[23] = system: Mus musculus; test: In vivo agonist activity against PPARalpha/delta assessed as upregulation of Fabp1 mRNA expression in C57BL/6Nifdc mouse liver at 10 mg/kg, po for 4 days; assay type: functional, organism-based; conditions: time 4.0 day
[24] = system: THP-1; test: Anti-inflammatory activity in human THP1-derived macrophages assessed as decrease in secretion of LPS-induced TNF-alpha level at 8 to 200 nM for 12 hrs by ELISA kit method; assay type: functional, cell-based; conditions: dose 8-200 nM

Cc1cc(Cn2ncn(-c3ccc(OC(F)(F)F)cc3)c2=O)cc(C)c1OC(C)(C)C(=O)O
Activity [1]: Active
Activity [2]: Active
Activity [3]: Active
Activity [4]: Active
Activity [5]: Active
Activity [6]: Active
Activity [7]: Active
Activity [8]: Active
EC50 [9]: 1010 nM
Activity [10]: Active
Activity [11]: Active
Activity [12]: Active
Activity [13]: Active
Activity [14]: Active
Activity [15]: Active
Activity [16]: Active
Activity [17]: Active
Activity [18]: Active
Activity [19]: Active
Activity [20]: Active
Activity [21]: Dose-Dependent Effect
Activity [22]: Active
Activity [23]: Active
Activity [24]: Active
